# Experiments:
# [1] = Solubility; type: physicochemical
# [2] = acute intraperitoneal LD50 in mice; conditions: mouse, in vivo, ip
# [3] = system: Streptococcus pyogenes A-9604; test: MIC, standard tube dilution procedure; type: cell-based; conditions: A9604; in vitro, Streptococcus pyogenes A-9604; read-out: MIC
# [4] = system: Escherichia coli A-21780; test: MIC, standard tube dilution procedure; type: cell-based; conditions: A21780; in vitro, Escherichia coli A-21780; read-out: MIC
# [5] = system: Staphylococcus aureus A-9497; test: MIC, standard tube dilution procedure; type: cell-based; conditions: A9497; in vitro, Staphylococcus aureus A-9497; read-out: MIC
# [6] = system: P-388 leukemia; test: transplanted mouse leukemia P-388 (ascitic); conditions: single i.p. injection Day 1
# Experimental: (§1) The compounds of the present invention were also tested against various transplantable rodent tumer systems.
# (§2) Single injection Day 1 intraperitoneally.?
# (§3) T/C percent MST=median survival time in days: Treated/Control × 100
# [7] = system: L-1210 leukemia; test: transplanted mouse leukemia L-1210 (ascitic); conditions: single i.p. injection Day 1
# Experimental: as §1, §2, §3
# [8] = system: Candida tropicalis A-15051; test: MIC, standard tube dilution procedure; type: cell-based; conditions: A15051; in vitro, Candida tropicalis A-15051; read-out: MIC
# [9] = activity of column fractions of bohemic acid complex; conditions: Example 8 large scale fractionation
# Experimental: Sephadex LH-20 soaked for 68 hours in chloroform was slurry packed into a Pharmacia SR 25/100 column (25 mm. I.D. × 100 cm. height) equipped with adjustable teflon tips at each end. The column was packed so as to be completely filled from tip to tip, an effective bed height of 90-95 cm. Bohemic acid complex (500 mg.) was dissolved in 10 ml. chloroform and applied to the column which was then allowed to develop with chloroform by downflow at a take-off rate of 1 ml./min. Eluted liquid was collected in 6 ml. cuts in a fraction collector. Samplings of even numbered tubes were diluted 80-fold with chloroform and read in a Bausch and Lomb Spectronic 20 colorimeter at 490 mμ. Four distinct bands of anthracycline pigments were noted as follows:
# The solids obtained were chromatographed on Brinkmann 60F254 silica gel thin layer plates using an 80:20 toluene:methanol solvent system. […] The second band gave a characteristic pinkish red zone at about Rf =0.75. […] The third fraction to elute gave a single zone with Rf ~0.3. […] The final band to elute gave a zone at Rf ~0.3 and comprised mainly marcellomycin. […]
# A 6 inch (diameter) × 77 inch (height) glass column was equipped at the base with a no clog filter on top of which was placed a layer of glass wool followed by a circular polyethylene frit. […] Aliquots of every fifth fraction were diluted and analyzed as described in Example 7. […]
# [10] = system: L-1210 leukemia; test: L-1210 mouse leukemia, purified compounds, BDF1 female mice
# Experimental: Inoculum: 10^6 ascitic cells, i.p. into BDF1 female mice
# Treatment: i.p. in 0.5 ml. volume
# Evaluation: MST = median survival time in days; %T/C = MST treated/MST
# (prolongation of host survival)
# [11] = system: Streptococcus pneumoniae A-9585; test: MIC, standard tube dilution procedure; type: cell-based; conditions: A9585; in vitro, Streptococcus pneumoniae A-9585; read-out: MIC
# [12] = system: Candida krusei A-15052; test: MIC, standard tube dilution procedure; type: cell-based; conditions: Pichia kudriavzevii, A15052; in vitro, Candida krusei A-15052; read-out: MIC
# [13] = system: Staphylococcus aureus A-9537; test: MIC, standard tube dilution procedure; type: cell-based; conditions: A9537; in vitro, Staphylococcus aureus A-9537; read-out: MIC
# [14] = system: Klebsiella pneumoniae A-9977; test: MIC, standard tube dilution procedure; type: cell-based; conditions: A9977; in vitro, Klebsiella pneumoniae A-9977; read-out: MIC
# [15] = system: Proteus mirabilis A-9900; test: MIC, standard tube dilution procedure; type: cell-based; conditions: A9900; in vitro, Proteus mirabilis A-9900; read-out: MIC
# [16] = system: Escherichia coli A-15119; test: MIC, standard tube dilution procedure; type: cell-based; conditions: A15119; in vitro, Escherichia coli A-15119; read-out: MIC
# [17] = system: Trichophyton mentagrophytes A-9870; test: MIC, standard tube dilution procedure; type: cell-based; conditions: A9870; in vitro, Trichophyton mentagrophytes A-9870; read-out: MIC
# [18] = system: Candida albicans A-9540; test: MIC, standard tube dilution procedure; type: cell-based; conditions: A9540; in vitro, Candida albicans A-9540; read-out: MIC
# [19] = system: Cryptococcus neoformans A-1503; test: MIC, standard tube dilution procedure; type: cell-based; conditions: A1503; in vitro, Cryptococcus neoformans A-1503; read-out: MIC
# [20] = system: animal tumor systems; conditions: reported in literature; cited from earlier work
# [21] = 3.2 mg/kg/day i.p., Day 1, 1 injection
# [22] = 3.2 mg/kg/day i.p., Day 1→5, 5 injections
# [23] = 6.4 mg/kg/day i.p., Day 1, 1 injection
# [24] = 6.4 mg/kg/day i.p., Day 1→5, 5 injections
# [25] = 12.8 mg/kg/day i.p., Day 1, 1 injection
# [26] = .2 mg/kg/day i.p., Day 1→5, 5 injections
# [27] = .4 mg/kg/day i.p., Day 1, 1 injection
# [28] = .4 mg/kg/day i.p., Day 1→5, 5 injections
# [29] = .8 mg/kg/day i.p., Day 1, 1 injection
# [30] = .8 mg/kg/day i.p., Day 1→5, 5 injections
smiles,measurement,setting,value
CC[C@@]1(O)C[C@H](O[C@H]2C[C@H](N(C)C)[C@H](O[C@H]3C[C@H](O)[C@H](O)[C@H](C)O3)[C@H](C)O2)c2c(cc3c(c2O)C(=O)c2c(O)ccc(O)c2C3=O)[C@H]1C(=O)OC [musettamycin],Solubility,[1]; organic solvents,Soluble in most organic solvents
same,Solubility,"[1]; water, aliphatic hydrocarbons and ether","insoluble in water, aliphatic hydrocarbons and ether"
same,LD50,[2],9.8 to 21.1 mg/kg
same,MIC,[3],0.06 µg/mL
same,MIC,[4],32 µg/mL
same,MIC,[5],0.5 µg/mL
same,"Avg. wt. Difference (T-C, g.)",[6]; 3.2 mg/kg,-3.0 g
same,T/C Percent MST,[6]; 3.2 mg/kg,145%
same,"Avg. wt. Difference (T-C, g.)",[6]; 6.4 mg/kg,-3.4 g
same,T/C Percent MST,[6]; 6.4 mg/kg,160%
same,"Avg. wt. Difference (T-C, g.)",[6]; .2 mg/kg,-2.1 g
same,T/C Percent MST,[6]; .2 mg/kg,120%
same,"Avg. wt. Difference (T-C, g.)",[6]; .4 mg/kg,-1.6 g
same,T/C Percent MST,[6]; .4 mg/kg,135%
same,"Avg. wt. Difference (T-C, g.)",[6]; .8 mg/kg,-2.0 g
same,T/C Percent MST,[6]; .8 mg/kg,140%
same,"Avg. wt. Difference (T-C, g.)",[7]; 3.2 mg/kg,-2.5 g
same,T/C Percent MST,[7]; 3.2 mg/kg,120%
same,"Avg. wt. Difference (T-C, g.)",[7]; 6.4 mg/kg,-2.5 g
same,T/C Percent MST,[7]; 6.4 mg/kg,140%
same,"Avg. wt. Difference (T-C, g.)",[7]; .8 mg/kg,-1.1 g
same,T/C Percent MST,[7]; .8 mg/kg,107%
same,MIC,[8],63 µg/mL
same,activity of fraction,[9],active
same,Average Weight Change in g.,[10]; [21],+0.3 g.
same,MST %T/C,[10]; [21],129%
same,MST Days,[10]; [21],9.0 days
same,Average Weight Change,[10]; [22],-1.3 g
same,MST %T/C,[10]; [22],157%
same,MST Days,[10]; [22],11.0 days
same,Average Weight Change in g.,[10]; [23],+0.5 g.
same,MST %T/C,[10]; [23],143%
same,MST Days,[10]; [23],10.0 days
same,Average Weight Change,[10]; [24],-1.5 g
same,MST %T/C,[10]; [24],86%
same,MST Days,[10]; [24],6.0 days
same,Average Weight Change,[10]; [25],-0.6 g
same,MST %T/C,[10]; [25],150%
same,MST Days,[10]; [25],10.5 days
same,Average Weight Change in g.,[10]; [26],+1.8 g.
same,MST %T/C,[10]; [26],129%
same,MST Days,[10]; [26],9.0 days
same,Average Weight Change in g.,[10]; [27],+1.3 g.
same,MST %T/C,[10]; [27],114%
same,MST Days,[10]; [27],8.0 days
same,Average Weight Change in g.,[10]; [28],+0.6 g.
same,MST %T/C,[10]; [28],129%
same,MST Days,[10]; [28],9.0 days
same,Average Weight Change in g.,[10]; [29],+1.2 g.
same,MST %T/C,[10]; [29],121%
same,MST Days,[10]; [29],8.5 days
same,Average Weight Change in g.,[10]; [30],+0.4 g.
same,MST %T/C,[10]; [30],136%
same,MST Days,[10]; [30],9.5 days
same,MIC,[11],0.06 µg/mL
same,MIC,[12],125 µg/mL
same,MIC,[13],1 µg/mL
same,MIC,[14],> 125 µg/mL
same,MIC,[15],> 125 µg/mL
same,MIC,[16],> 125 µg/mL
same,MIC,[17],> 125 µg/mL
same,MIC,[18],125 µg/mL
same,MIC,[19],63 µg/mL
CC(=O)[C@]1(O)Cc2c(O)c3c(c(O)c2[C@@H](O[C@H]2C[C@H](N)[C@H](O)[C@H](C)O2)C1)C(=O)c1c(O)cccc1C3=O [carminomycin],activity against animal tumor systems,[20],active against several animal tumor systems

# From patent US4039736A (Bristol-Myers Company, priority 1976, dated 1977)
